According to PMC11696429 (ACS Omega, 2024):
Where two headings read alike, the source gives them in different places.

Assays:
Assay type in all cases: binding
integrin αvβ3 [1] = molecular target: T1, integrin αvβ3 (Homo sapiens, UniProt P05106+P06756)
integrin αvβ3 [2] = molecular target: T1, integrin αvβ3; remark: listed apart in the source
integrin αvβ3 [3] = molecular target: T1, integrin αvβ3; details: for IC50: IC50 (competitive displacement), day 7, competitor [^125I]I-echistatin

## N=C(N)NCCC[C@@H]1NC(=O)[C@H](CCCCNC(=O)CCOCCOCCOCCOCCOCCOCCNC(=O)CC[C@H](C(=O)O)N2CCN(CC(=O)O)CCN(CC(=O)O)CC2)NC(=O)[C@@H](Cc2ccccc2)NC(=O)[C@H](CC(=O)O)NC(=O)CNC1=O [NODAGA-PEG5-c(RGDfK), NODAGA-PEG5-c(Arg-Gly-Asp-D-Phe-Lys)]
Integrin αvβ3 [1]
  IC50: 3.08 ± 0.12 µM
Integrin αvβ3 [2]
  IC50: 10.4 ± 0.89 µM
Integrin αvβ3 [2]; 2D monolayer with BME vs without BME supplementation
  change of IC50 value by BME: triplication
Integrin αvβ3 [3]; U87MG spheroids generated with collagen-1 supplementation
  IC50: 20.5 ± 4.41 µM
Integrin αvβ3 [3]; U87MG spheroids generated without supplementation
  IC50: 16.5 ± 2.88 µM
Integrin αvβ3 [3]; IC50 in 3D U87MG spheroids vs 2D monolayer cell system
  reduced interaction in 3D spheroids compared to 2D monolayer (fold): 5–7 fold
